Key:
[1] = test system: HEK-uPAR xenograft-bearing nude mice; assay: Biodistribution studies in HEK-uPAR xenograft-bearing nude mice; conditions: average ± SD, n=3 animals
Description: (§1) All applicable international, national, and/or institutional guidelines for the care and use of laboratory animals were followed, and the herein reported experiments were carried out according to the guidelines of the Swiss Regulations for Animal Welfare. The preclinical studies were ethically approved by the Cantonal Committee of Animal Experimentation and permitted by the responsible cantonal authorities (License No. 75721). Five-week-old female CD1/nude (Crl:CD1-Foxn ^ nu ) and female immunocompetent FVB (FVB/NCrl) mice were obtained from Charles River Laboratories (Sulzfeld, Germany). All mice were acclimatized for at least 7 days, receiving standard rodent chow ad libitum before being included in the reported studies. The CD1/nude mice were subcutaneously inoculated with HEK-uPAR cells (7 × 10^6 cells in 100 μL PBS) on the right shoulder. […] Typically, it took 3–11 weeks to reach xenograft volumes of 40–600 mm^3 at the time of testing the tissue distribution of the radiopeptides. The immunocompetent FVB mice were used for testing the in vivo stability of the radiopeptides.
(§2) The mice were injected with the radiopeptides (5 MBq, 0.5 nmol, 100 μL) in saline containing 0.05% BSA and sacrificed at 4 and 24 h after injection of the radiopeptides. Selected tissues and organs were collected, weighed, and measured with the γ-counter (1480 Wizard, PerkinElmer). […] A p-value of <0.05 was considered a statistically significant difference (GraphPad Prism software, version 8.3.1).
(§3) Decay-corrected data is shown as average ± SD of n = 3 animals of % injected activity per gram (IA/g) tissue.

[2] = as above; conditions: female, mouse, total radioactivity, 5 MBq, 0.5 nmol, decay-corrected, average ± SD, n=3 animals; for tissue uptake at 4 h: 4 h p.i.; for tissue uptake at 24 h: 24 h p.i.
Description: as §1, §2, §3

[3] = Stability of the radiopeptides in human blood plasma; conditions: human; for remaining at 1 h, 10 MBq/200 µL / remaining at 24 h, 10 MBq/200 µL: blood plasma; for remaining at 4 h, 10 MBq/200 µL: human blood plasma
Description: The radiopeptides (50 MBq/nmol) stabilized with L-ascorbic acid were diluted in mouse and human blood plasma and incubated at 37 °C. Aliquots were taken after 1, 4, and 24 h and analyzed using reversed-phase thin-layer chromatography (TLC) (Supporting Information).
aProduct peak expressed as percentage of the sum of integrated peak areas of the entire chromatogram relative to
the value obtained immediately after labeling (set as 100%), average ± standard deviation (SD) (n=3).
Stability of the Radiopeptides in Mouse and Human Blood Plasma
Purpose: The stability of the radiopeptides was assessed in mouse and human blood plasma as an
indication for their in vivo stability.
Methods: The radiopeptides (50 MBq/nmol) stabilized with L-ascorbic acid were diluted in mouse
blood plasma (Lot: 32321, Rockland Immunochemicals Inc., U.S.A.) or in human blood plasma
(Stiftung Blutspende SRK Aargau -Solothurn, Switzerland) at a concentration of 10 MBq/200 µL and
incubated at 37 °C over a 24 h time period. Control samples were prepared by diluting the radiopeptides
in saline at the same activity concentration. Aliquots of each dilution were taken after 1 h, 4 h, and 24 h
(2 µL, ~100 kBq) and investigated employing thin layer chromatography (TLC) methods on reversed-
phase TLC plates (MERCK Analytical Chromatography, TLC Silica gel 60 RP -18 F254s) as stationary
phase and a 3/7 (v/v) mixture of acetonitrile /citrate buffer (0.1 M, pH 5.5) as mobile phase. A dilution
of [177Lu]LuCl3/HCl 0.04 M (10 MBq/200 µL) was added on each TLC plate. The developed and dried
TLC plates were exposed to a phosphor screen (Super resolution screen PSR10450013, PerkinElmer)
for 1 min. The screen was read with a Cyclone Plus phosphor imager (PerkinElmer) and the peak
quantification was performed using OptiQuant Software (version 5.0).

[4] = test system: human serum albumin (HSA); assay: Albumin-binding properties in human blood plasma (ultrafiltration assay); conditions: for Relative albumin-binding affinity, human blood plasma: ultrafiltration (Amicon, 10 kDa), human blood plasma dilutions in PBS pH 7.4, [HSA]-to-[radiopeptide] 0.01–20000, 0.006 nmol, 37 °C 30 min, γ-counter, inverse ratio of B50, [177Lu]Lu-uPAR-01 set as 1.00, average curve of 3 experiments
Description: (§4) The relative albumin-binding affinities of the radiopeptides in mouse and human blood plasma were determined using an ultrafiltration assay with Amicon centrifugal filters (cutoff of 10 kDa; Merck Millipore), as previously reported (Supporting Information). A fixed amount of the respective radiopeptide (15 μL, ∼300 kBq, 0.006 nmol) was added to a defined volume (150 μL) of mouse and human blood plasma dilutions to obtain [mouse serum albumin (MSA)]-to-[radiopeptide] and [human serum albumin (HSA)]-to-[radiopeptide] molar concentration ratios of 0.01–12,500 and 0.01–20,000, respectively. The data were analyzed using a semilogarithmic Hill plot with the maximum binding set as 100% (GraphPad Prism software, version 8.3.1).
(§5) Determination of the Albumin-Binding Properties
(§6) Purpose: The radiopeptides were investigated with regard to their albumin-binding capabilities in vitro
(§7) as a measure to predict blood retention in vivo.
(§8) Methods: The relative albumin-binding affinity of the radiopeptides in mouse blood plasma (Rockland
(§9) Immunochemicals, Inc., U.S.A.) and human blood plasma (Stiftung Blutspende SRK Aargau-
(§10) Solothurn, Switzerland) were determined using an ultrafiltration method. The amount of mouse serum
(§11) albumin (MSA) and human serum albumin (HSA) in mouse and human blood plasma was defined as
(§12) 550 μM and 800 μM, respectively, based on measurements using a dry chemistry analyzer (DRI-CHEM
(§13) 4000i, FUJIFILM, Japan). A fixed amount of radiopeptide (50 MBq/nmol, ~300 kBq, 15 μL, 0.006
(§14) nmol) was added to a defined volume (150 μL) of mouse and human blood plasma and various dilutions
(§15) thereof in PBS pH 7.4, resulting in defined [MSA]-to-[radiopeptide] or [HSA]-to-[radiopeptide] molar
(§16) concentration ratios ranging from 0.01 ‒12500 and 0.01‒20000, respectively, followed by incubation of
(§17) the samples at 37 °C for 30 min. Ice-cold PBS (150 µL, pH 7.4) was added before loading the blood
(§18) plasma samples on Amicon centrifugal filters (cut -off of 10 kDa; Merck Millipore) followed by
(§19) centrifugation (14000 rcf, 30 min, 4 °C) to allow the separation of the plasma protein -bound from the
(§20) plasma-unbound (free) fractions of each sample. The inserts of the filter devices were inverted and centrifuged at 200 rcf for 3 min to recover the protein -bound radiopeptide. The activity in the filtrate
(§21) and filter unit was measured in a γ-counter (1480 Wizard, PerkinElmer) and the counts were combined
(§22) assuming that the fraction retained in the filter membrane was not bound to proteins. The protein -bound
(§23) fraction was expressed as percentage of the whole activity (i.e. plasma protein -bound activity, activity
(§24) measured in the filtrate and activity measured in the filter (set as 100%) ). The data were analyzed using
(§25) a semi-logarithmic plot assuming a maximum binding of 100%. The Hill equation was fitted to the data
(§26) points and the half -maximum binding ( B50) based on the average curve obtained from three independent
(§27) experiments (GraphPad Prism software, version 8.3 .1). The relative albumin-binding affinit ies of the
(§28) reference compound, whose relative binding affinity was set as 1.0. The results were presented as the
(§29) B50 value obtained from the average curve from 3 independent experiments.

[5] = Radiolytic stability of the radiopeptides in saline with L-ascorbic acid; conditions: 50 MBq/nmol in saline, 150 MBq/300 µL, L-ascorbic acid (3 mg, 20 µL) and NaOAc (0.5 M, 30 µL), HPLC, product peak relative to t=0 (100%), average ± SD, n=3
Description: The radiolytic stability of the radiopeptides (50 MBq/nmol) in saline (150 MBq/300 μL) was assessed in the absence and presence of L-ascorbic acid (3 mg added in a volume of 20 μL). After an incubation period of 1, 4, and 24 h, aliquots of the solutions were analyzed using HPLC. The integrated peak area representing the intact radiopeptide was expressed as the percentage of the sum of all peaks of the chromatogram. The final amount of intact radiopeptide was expressed as the percentage of the product peak obtained at t = 0, which was set as 100% (Supporting Information).
The radiolytic stability of [177Lu]Lu-DOTA-AE105 and the new 177Lu-labeled uPAR-targeting
radiopeptides (50 MBq/nmol) was assessed in vitro in the formulated solution . The radiopeptide s were
diluted in saline to obtain an activity concentration of 150 MBq in 300 µL in the presence of L-ascorbic
acid (3 mg, 20 µL) and NaOAc (0.5 M, 30 µL) to compensate for the acidic pH. Aliquots of the dilutions
were analyzed using HPLC after incubation periods of 1 h, 4 h and 24 h . The integrated peak area
measured for the intact radioligand peak was expressed as the percentage of the sum of the integrated
peak areas of each peak present in the chromatogram. The final amount of intact radiopeptide at t = 1 h,
4 h and 24 h was expressed by correcting the obtained percentage of the product peak to this peak
obtained at t = 0, which was set as 100%.

[6] = n-Octanol/PBS distribution coefficients (logD values); conditions: n-octanol/PBS pH 7.4, pH 7.4
Description: The radiopeptides diluted in phosphate-buffered saline (PBS) pH 7.4 (25 μL, ∼0.5 MBq, 0.01 nmol) were added to a mixture of PBS pH 7.4 (1475 μL) and n-octanol (1500 μL). The vials were vortexed vigorously for 1 min, followed by centrifugation (560 rcf, 6 min) for phase separation. Aliquots were taken from each phase and measured in a γ-counter (1480 Wizard, PerkinElmer). The distribution coefficients were calculated as the logarithmic value of the ratio of counts per minute (cpm) measured in the n-octanol phase relative to the cpm measured in the PBS phase.
Methods: The logD value of all radiopeptides was determined in a mixture of n-octanol and phosphate
buffered saline (PBS) pH 7.4 using phase separation followed by liquid-liquid extraction.
polystyrene radioimmunoassay (RIA) tubes were prepared for each radiopeptide with 1.5 mL n-octanol
and 1.475 mL PBS pH 7.4. The RIA tubes were rigorously vortexed and subsequently let to stand so
that the phase separation could take place. The radiopeptides (50 MBq/nmol) were diluted with PBS
pH 7.4 to obtain an activity concentration of 10 MBq/0.5 mL. A volume of 25 μL of these solutions
was added to each RIA tube (25 µL, ~0.5 MBq, 0.01 nmol) followed by vortexing for 1 min.
separation was achieved by centrifugation at 560 rcf for 6 min. The activity in the n-octanol and PBS
phase, respectively, was measured in a γ-counter (Wallac Wizard 1480, PerkinElmer).
coefficients were calculated as the logarithm of the ratio of counts per minute (cpm) measured in the n-
octanol phase relative to the cpm measured in the PBS pH 7.4 phase.
as described above three independent times for each radiopeptide.

human uPAR = biological target: T1, human uPAR (Homo sapiens, UniProt Q03405); assay: uPAR-binding affinity (KD values), saturation experiments with HEK-uPAR cells; conditions: saturation binding on HEK-uPAR cells, on ice (4 °C) 1 h, 1–1600 nM radiopeptide, ± AE105 40 µM; γ-counter; nonlinear regression; average ± SD, n=3
T1 construct: host or cells: HEK cells (HEK-uPAR)
T1 sequence (Q03405 23-335): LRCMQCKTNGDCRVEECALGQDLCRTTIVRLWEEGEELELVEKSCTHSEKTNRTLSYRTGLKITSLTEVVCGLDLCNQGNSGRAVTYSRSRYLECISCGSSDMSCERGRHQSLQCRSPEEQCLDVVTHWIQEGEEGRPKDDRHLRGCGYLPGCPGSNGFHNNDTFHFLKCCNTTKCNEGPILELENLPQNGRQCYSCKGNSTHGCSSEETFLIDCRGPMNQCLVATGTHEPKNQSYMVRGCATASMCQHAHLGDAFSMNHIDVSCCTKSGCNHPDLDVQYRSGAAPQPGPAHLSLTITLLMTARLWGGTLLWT
Summary of the method: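 HEK-uPAR cells incubated 1 h at 4 °C (on ice) with radiopeptide at 1–1600 nM final, with or without 40 μM AE105 as blocker. Cell-bound activity counted in a γ-counter after NaOH lysis; KD from nonlinear regression of specific binding (total minus unspecific), mean ± SD of n = 3.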

[7] = test system: mouse serum albumin (MSA); assay: Albumin-binding properties in mouse blood plasma (ultrafiltration assay); conditions: for Relative albumin-binding affinity, mouse blood plasma: ultrafiltration (Amicon, 10 kDa), mouse blood plasma dilutions in PBS pH 7.4, [MSA]-to-[radiopeptide] 0.01–12500, 0.006 nmol, 37 °C 30 min, γ-counter, inverse ratio of B50, [177Lu]Lu-uPAR-01 set as 1.00, average curve of 3 experiments
Description: as §4, §5, §6, §7, §8, §9, §10, §11, §12, §13, §14, §15, §16, §17, §18, §19, §20, §21, §22, §23, §24, §25, §26, §27, §28, §29

[8] = CD1/nude, HEK-uPAR xenograft, 5 MBq (0.5 nmol), HEK-uPAR xgft
[9] = CD1/nude, blood, 5 MBq (0.5 nmol)
[10] = CD1/nude, bone, 5 MBq (0.5 nmol)
[11] = CD1/nude, brain, 5 MBq (0.5 nmol)
[12] = CD1/nude, heart, 5 MBq (0.5 nmol)
[13] = CD1/nude, intestines, 5 MBq (0.5 nmol)
[14] = CD1/nude, kidneys, 5 MBq (0.5 nmol)
[15] = CD1/nude, liver, 5 MBq (0.5 nmol)
[16] = CD1/nude, lung, 5 MBq (0.5 nmol)
[17] = CD1/nude, muscle, 5 MBq (0.5 nmol)
[18] = CD1/nude, pancreas, 5 MBq (0.5 nmol)
[19] = CD1/nude, salivary glands, 5 MBq (0.5 nmol)
[20] = CD1/nude, spleen, 5 MBq (0.5 nmol)
[21] = CD1/nude, stomach, 5 MBq (0.5 nmol)

CC(C)C[C@H](NC(=O)[C@H](Cc1ccc(O)cc1)NC(=O)[C@@H](CCCNC(=N)N)NC(=O)[C@@H](CO)NC(=O)[C@H](Cc1ccccc1)NC(=O)[C@H](CC1CCCCC1)NC(=O)[C@H](CC(=O)O)NC(=O)[C@H](CCCCNC(=O)CCCc1ccc(I)cc1)NC(=O)[C@@H](N)CCCCNC(=O)CN1CCN(CC(=O)O)CCN(CC(=O)O)CCN(CC(=O)O)CC1)C(=O)N[C@@H](Cc1c[nH]c2ccccc12)C(=O)N[C@@H](CO)C(N)=O [[^177Lu]Lu-uPAR-04, metal not drawn]
Xenograft-to-blood ratio ([1]; 4 h p.i.): 0.28 ± 0.01 | Xenograft-to-kidney ratio ([1]; 4 h p.i.): 0.62 ± 0.01 | Xenograft-to-liver ratio ([1]; 4 h p.i.): 0.93 ± 0.08 | Xenograft-to-blood ratio ([1]; 24 h p.i.): 0.61 ± 0.09 | Xenograft-to-kidney ratio ([1]; 24 h p.i.): 0.73 ± 0.15 | Xenograft-to-liver ratio ([1]; 24 h p.i.): 1.4 ± 0.2 | tissue uptake at 4 h [2, 8]: 3.6 ± 0.2 %ID/g | tissue uptake at 24 h [2, 8]: 4.3 ± 1.2 %ID/g | tissue uptake at 4 h [2, 9]: 13 ± 1 %ID/g | tissue uptake at 24 h [2, 9]: 7 ± 0.9 %ID/g | tissue uptake at 4 h [2, 10]: 1.2 ± 0.1 %ID/g | tissue uptake at 24 h [2, 10]: 0.85 ± 0.04 %ID/g | tissue uptake at 4 h [2, 11]: 0.26 ± 0.02 %ID/g | tissue uptake at 24 h [2, 11]: 0.14 ± 0.01 %ID/g | tissue uptake at 4 h [2, 12]: 4.4 ± 0.6 %ID/g | tissue uptake at 24 h [2, 12]: 3 ± 0.3 %ID/g | tissue uptake at 4 h [2, 13]: 1.6 ± 0.1 %ID/g | tissue uptake at 24 h [2, 13]: 0.99 ± 0.21 %ID/g | tissue uptake at 4 h [2, 14]: 5.9 ± 0.4 %ID/g | tissue uptake at 24 h [2, 14]: 5.9 ± 1.2 %ID/g | tissue uptake at 4 h [2, 15]: 3.9 ± 0.3 %ID/g | tissue uptake at 24 h [2, 15]: 3.1 ± 0.4 %ID/g | tissue uptake at 4 h [2, 16]: 6.2 ± 0.7 %ID/g | tissue uptake at 24 h [2, 16]: 4.3 ± 0.5 %ID/g | tissue uptake at 4 h [2, 17]: 1 ± 0.1 %ID/g | tissue uptake at 24 h [2, 17]: 0.73 ± 0.04 %ID/g | tissue uptake at 4 h [2, 18]: 1.5 ± 0.1 %ID/g | tissue uptake at 24 h [2, 18]: 1 ± 0.1 %ID/g | tissue uptake at 4 h [2, 19]: 2.8 ± 0.2 %ID/g | tissue uptake at 24 h [2, 19]: 2.4 ± 0.4 %ID/g | tissue uptake at 4 h [2, 20]: 1.9 ± 0.1 %ID/g | tissue uptake at 24 h [2, 20]: 2.3 ± 0.3 %ID/g | tissue uptake at 4 h [2, 21]: 1.5 ± 0.1 %ID/g | tissue uptake at 24 h [2, 21]: 1 ± 0.1 %ID/g | remaining at 1 h, 10 MBq/200 µL [3]: 101 ± 3% | remaining at 24 h, 10 MBq/200 µL [3]: 90 ± 5% | remaining at 4 h, 10 MBq/200 µL [3]: 98 ± 2% | Relative albumin-binding affinity, human blood plasma [4]: 1.07 | radiolytic stability, % intact radiopeptide ([5]; 1 h): 99 ± 1% | radiolytic stability, % intact radiopeptide ([5]; 4 h): 97 ± 2% | radiolytic stability after 24 h, intact radiopeptide [%] [5]: 95 ± 2% | logD [6]: -0.29 | Kd (human uPAR): 57 ± 21 nM | Relative albumin-binding affinity, mouse blood plasma [7]: 1.08

CC(C)C[C@H](NC(=O)[C@H](Cc1ccc(O)cc1)NC(=O)[C@@H](CCCNC(=N)N)NC(=O)[C@@H](CO)NC(=O)[C@H](Cc1ccccc1)NC(=O)[C@H](CC1CCCCC1)NC(=O)[C@H](CC(=O)O)NC(=O)CCOCCOCCOCCOCCNC(=O)[C@H](CCCCNC(=O)CCCc1ccc(I)cc1)NC(=O)CN1CCN(CC(=O)O)CCN(CC(=O)O)CCN(CC(=O)O)CC1)C(=O)N[C@@H](Cc1c[nH]c2ccccc12)C(=O)N[C@@H](CO)C(N)=O [[^177Lu]Lu-uPAR-05, metal not drawn]
Xenograft-to-blood ratio ([1]; 4 h p.i.): 0.42 ± 0.07 | Xenograft-to-kidney ratio ([1]; 4 h p.i.): 1.4 ± 0.2 | Xenograft-to-liver ratio ([1]; 4 h p.i.): 0.98 ± 0.10 | Xenograft-to-blood ratio ([1]; 24 h p.i.): 0.66 ± 0.12 | Xenograft-to-kidney ratio ([1]; 24 h p.i.): 1.9 ± 0.3 | Xenograft-to-liver ratio ([1]; 24 h p.i.): 2.9 ± 0.3 | tissue uptake at 24 h ([2]; CD1/nude (Crl:CD1-Foxn nu), HEK-uPAR xenograft, HEK-uPAR xgft): 3.1 ± 0.7 %ID/g | tissue uptake at 4 h [2, 8]: 5.1 ± 1 %ID/g | tissue uptake at 4 h [2, 9]: 12 ± 1 %ID/g | tissue uptake at 24 h [2, 9]: 4.6 ± 0.3 %ID/g | tissue uptake at 4 h [2, 10]: 1.1 ± 0.1 %ID/g | tissue uptake at 24 h [2, 10]: 0.67 ± 0.06 %ID/g | tissue uptake at 4 h [2, 11]: 0.27 ± 0.01 %ID/g | tissue uptake at 24 h [2, 11]: 0.11 ± 0.02 %ID/g | tissue uptake at 4 h [2, 12]: 4.1 ± 0.2 %ID/g | tissue uptake at 24 h [2, 12]: 1.6 ± 0.1 %ID/g | tissue uptake at 4 h [2, 13]: 1.6 ± 0.1 %ID/g | tissue uptake at 24 h [2, 13]: 0.73 ± 0.07 %ID/g | tissue uptake at 4 h [2, 14]: 3.6 ± 0.2 %ID/g | tissue uptake at 24 h [2, 14]: 1.6 ± 0.1 %ID/g | tissue uptake at 4 h [2, 15]: 5.2 ± 0.6 %ID/g | tissue uptake at 24 h [2, 15]: 1.1 ± 0.1 %ID/g | tissue uptake at 4 h [2, 16]: 7 ± 0.5 %ID/g | tissue uptake at 24 h [2, 16]: 2.6 ± 0.4 %ID/g | tissue uptake at 4 h [2, 17]: 1.1 ± 0.1 %ID/g | tissue uptake at 24 h [2, 17]: 0.41 ± 0.04 %ID/g | tissue uptake at 4 h [2, 18]: 1.4 ± 0.2 %ID/g | tissue uptake at 24 h [2, 18]: 0.62 ± 0.07 %ID/g | tissue uptake at 4 h [2, 19]: 2.5 ± 0.3 %ID/g | tissue uptake at 24 h [2, 19]: 1.1 ± 0.1 %ID/g | tissue uptake at 4 h [2, 20]: 1.5 ± 0.1 %ID/g | tissue uptake at 24 h [2, 20]: 0.82 ± 0.1 %ID/g | tissue uptake at 4 h [2, 21]: 1.3 ± 0.1 %ID/g | tissue uptake at 24 h [2, 21]: 0.64 ± 0.01 %ID/g | remaining at 1 h, 10 MBq/200 µL [3]: 99 ± 1% | remaining at 24 h, 10 MBq/200 µL [3]: 99 ± 1% | remaining at 4 h, 10 MBq/200 µL [3]: 99 ± 1% | fold lower albumin-binding affinity than [177Lu]Lu-uPAR-01 ([4]; human blood plasma, ultrafiltration): 2.4 fold | Relative albumin-binding affinity, human blood plasma [4]: 0.43 | radiolytic stability, % intact radiopeptide ([5]; 1 h): 99 ± 2% | radiolytic stability, % intact radiopeptide ([5]; 4 h): 97 ± 1% | radiolytic stability after 24 h, intact radiopeptide [%] [5]: 93 ± 1% | logD [6]: 0.24 ± 0.09 | Kd (human uPAR): 10 ± 5 nM | fold lower albumin-binding affinity than [177Lu]Lu-uPAR-01 ([7]; mouse blood plasma, ultrafiltration): 1.6 fold | Relative albumin-binding affinity, mouse blood plasma [7]: 0.61
